Results: ChEMBL document CHEMBL5725854, “Inhibitors of protein methyltransferase DOT1L and methods of use thereof” (2018)

Target: Histone-lysine N-methyltransferase, H3 lysine-79 specific (Homo sapiens) (UniProt Q8TEK3)
Sequence (Q8TEK3 whole entry, looked up): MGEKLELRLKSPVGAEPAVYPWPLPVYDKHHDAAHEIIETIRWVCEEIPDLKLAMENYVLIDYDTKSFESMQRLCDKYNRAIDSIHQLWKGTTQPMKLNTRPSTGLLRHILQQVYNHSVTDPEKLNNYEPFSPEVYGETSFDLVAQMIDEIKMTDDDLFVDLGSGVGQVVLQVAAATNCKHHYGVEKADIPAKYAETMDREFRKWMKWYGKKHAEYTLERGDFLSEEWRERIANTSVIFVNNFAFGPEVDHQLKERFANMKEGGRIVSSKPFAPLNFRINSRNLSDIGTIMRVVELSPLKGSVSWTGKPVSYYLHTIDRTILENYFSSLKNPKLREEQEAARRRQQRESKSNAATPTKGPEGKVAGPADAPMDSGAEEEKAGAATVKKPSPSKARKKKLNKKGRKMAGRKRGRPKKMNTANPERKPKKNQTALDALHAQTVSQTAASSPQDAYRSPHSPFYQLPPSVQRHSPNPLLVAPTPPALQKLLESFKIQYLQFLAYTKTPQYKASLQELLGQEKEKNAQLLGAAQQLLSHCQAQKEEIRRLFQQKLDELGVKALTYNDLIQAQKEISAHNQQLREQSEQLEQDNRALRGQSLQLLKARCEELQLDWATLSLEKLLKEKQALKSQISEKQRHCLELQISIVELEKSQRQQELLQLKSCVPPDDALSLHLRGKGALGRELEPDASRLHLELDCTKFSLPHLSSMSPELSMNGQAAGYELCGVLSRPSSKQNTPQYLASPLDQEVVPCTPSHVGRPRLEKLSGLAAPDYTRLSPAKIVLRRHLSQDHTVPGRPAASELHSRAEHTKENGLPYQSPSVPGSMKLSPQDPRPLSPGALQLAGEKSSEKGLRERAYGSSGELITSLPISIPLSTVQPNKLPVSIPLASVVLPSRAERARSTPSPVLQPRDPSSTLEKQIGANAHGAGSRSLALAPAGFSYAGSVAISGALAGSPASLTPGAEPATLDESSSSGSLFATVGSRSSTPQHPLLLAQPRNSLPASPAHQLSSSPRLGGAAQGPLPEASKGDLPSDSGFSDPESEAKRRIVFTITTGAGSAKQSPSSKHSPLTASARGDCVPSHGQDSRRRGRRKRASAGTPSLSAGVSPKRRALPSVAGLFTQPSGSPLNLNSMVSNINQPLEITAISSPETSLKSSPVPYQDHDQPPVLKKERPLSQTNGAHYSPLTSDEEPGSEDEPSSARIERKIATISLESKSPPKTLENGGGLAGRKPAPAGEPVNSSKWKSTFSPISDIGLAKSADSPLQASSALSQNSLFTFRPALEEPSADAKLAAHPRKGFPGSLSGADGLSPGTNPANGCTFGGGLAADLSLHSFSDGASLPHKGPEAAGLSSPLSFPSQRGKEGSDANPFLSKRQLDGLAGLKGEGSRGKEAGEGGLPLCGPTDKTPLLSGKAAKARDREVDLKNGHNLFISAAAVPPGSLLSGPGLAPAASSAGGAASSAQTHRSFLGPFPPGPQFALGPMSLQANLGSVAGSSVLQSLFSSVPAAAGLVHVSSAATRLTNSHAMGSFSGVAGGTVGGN

SMILES: Nc1ncnc2c1ncn2[C@@H]1O[C@H](CSCC[C@H](N)OC=O)[C@@H](O)[C@H]1O
- k off: 0.1 s⁻¹
